# Test system: subjects with moderate-to-severe plaque psoriasis
# Assay: Safety, adverse events, Example 2 through Week 56
# Type: in vivo, human
# Conditions: 50 mg QD
# Text: The LTE safety analysis was based on randomized participants in Example who entered the present long-term extension study and received at least one dose of study intervention (including a partial dose) during the study period.
smiles,measurement,setting,value
"CC(=O)NCCCC[C@@H]1NC(=O)[C@H](Cc2c[nH]c3c(C)cccc23)NC(=O)[C@H]([C@@H](C)O)NC(=O)[C@H](CC(N)=O)NC(=O)[C@@H](NC(C)=O)C(C)(C)SSC(C)(C)[C@@H](C(=O)N[C@@H](Cc2ccc(OCCN)cc2)C(=O)N[C@@H](Cc2ccc3ccccc3c2)C(=O)NC2(C(=O)N[C@@H](CCC(=O)O)C(=O)N[C@@H](CC(N)=O)C(=O)N[C@@H](Cc3cccnc3)C(=O)N(C)CC(N)=O)CCOCC2)NC1=O [IL-23 receptor antagonist peptide, Ac-[Pen]*-N-T-[W(7-Me)]-[Lys(Ac)]-[Pen]*-Phe[4-(2-aminoethoxy)]-[2-Nal]-[THP]-E-N-[3-Pal]-Sarc-NH2 (*[Pen]-[Pen]* formdisulfidebond)]",Subjects with AE leading to discontinuation: Insomnia,Week 16-56,0
same,Subjects with AE leading to discontinuation: Investigations,Week 16-56,0
same,Subjects with AE leading to discontinuation: Nervous system disorders,Week 16-56,0
same,Subjects with AE leading to discontinuation: Proctalgia,Week 16-56,0
same,Subjects with AE leading to discontinuation: Psoriasis,Week 16-56,0
same,Subjects with AE leading to discontinuation: Psychiatric disorders,Week 16-56,0
same,Subjects with AE leading to discontinuation: Skin and subcutaneous tissue disorders,Week 16-56,0
same,Subjects with AE leading to discontinuation: Vertigo,Week 16-56,0
same,Subjects with AE leading to discontinuation: Vomiting,Week 16-56,0
same,Subjects with COVID-19 associated AE of interest: SARS-CoV-2 test positive,Week 16-56,0
same,Subjects with treatment-emergent AE: Headache,Week 16-56,0
same,Subjects with treatment-emergent AE: Meniscus injury,Week 16-56,0
same,Subjects with treatment-emergent AE: Nervous system disorders,Week 16-56,0
same,Subjects with treatment-emergent AE: Vomiting,Week 16-56,0
same,Subjects with treatment-emergent serious AE: Cerebrovascular accident,Week 16-56,0
same,Subjects with treatment-emergent serious AE: Diverticulitis,Week 16-56,0
same,Subjects with treatment-emergent serious AE: Infections and infestations,Week 16-56,0
same,"Subjects with treatment-emergent serious AE: Injury, poisoning and procedural complications",Week 16-56,0
same,Subjects with treatment-emergent serious AE: Intervertebral disc protrusion,Week 16-56,0
same,Subjects with treatment-emergent serious AE: Ligament injury,Week 16-56,0
same,"Subjects with treatment-emergent serious AE: Neoplasms benign, malignant and unspecified (incl cysts and polyps)",Week 16-56,0
same,Subjects with treatment-emergent serious AE: Nervous system disorders,Week 16-56,0
same,"Subjects with treatment-emergent serious AE: Respiratory, thoracic and mediastinal disorders",Week 16-56,0
same,Subjects with treatment-emergent serious AE: Tonsillar hypertrophy,Week 16-56,0
same,Subjects with treatment-emergent serious AE: Uterine leiomyoma,Week 16-56,0
same,Subjects with treatment-emergent serious AE: Ventricular dysfunction,Week 16-56,0
same,Acrochordon: number of subjects,through Week 56,0
same,Actinic keratosis: % of subjects,through Week 56,(2.3%)
same,Actinic keratosis: number of subjects,through Week 56,1
same,Alopecia: number of subjects,through Week 56,0
same,Asthenia: number of subjects,through Week 56,0
same,Asthma: number of subjects,through Week 56,0
same,Atrioventricular block first degree: number of subjects,through Week 56,0
same,Basal cell carcinoma: % of subjects,through Week 56,(2.3%)
same,Basal cell carcinoma: number of subjects,through Week 56,1
same,Blood and lymphatic system disorders: % of subjects,through Week 56,(7.0%)
same,Blood and lymphatic system disorders: number of subjects,through Week 56,3
same,Bronchitis chronic: number of subjects,through Week 56,0
same,Bundle branch block right: number of subjects,through Week 56,0
same,Cardiac disorders: % of subjects,through Week 56,(2.3%)
same,Cardiac disorders: number of subjects,through Week 56,1
same,Chills: number of subjects,through Week 56,0
same,Cholelithiasis: number of subjects,through Week 56,0
same,Chronic obstructive pulmonary disease: number of subjects,through Week 56,0
same,Coronary artery disease: % of subjects,through Week 56,(2.3%)
same,Coronary artery disease: number of subjects,through Week 56,1
same,Cough: % of subjects,through Week 56,(4.7%)
same,Cough: number of subjects,through Week 56,2
same,Decreased appetite: number of subjects,through Week 56,0
same,Depression: number of subjects,through Week 56,0
same,Dermal cyst: number of subjects,through Week 56,0
same,Dermatitis acneiform: number of subjects,through Week 56,0
same,Dermatitis contact: % of subjects,through Week 56,(2.3%)
same,Dermatitis contact: number of subjects,through Week 56,1
same,Diabetes mellitus: number of subjects,through Week 56,0
same,Diffuse alopecia: number of subjects,through Week 56,0
same,Dysuria: number of subjects,through Week 56,0
same,Ear and labyrinth disorders: number of subjects,through Week 56,0
same,Endocrine disorders: number of subjects,through Week 56,0
same,Eye disorders: number of subjects,through Week 56,0
same,Eyelid skin dryness: number of subjects,through Week 56,0
same,Fatigue: % of subjects,through Week 56,(2.3%)
same,Fatigue: number of subjects,through Week 56,1
same,General disorders and administration site conditions: % of subjects,through Week 56,(7.0%)
same,General disorders and administration site conditions: number of subjects,through Week 56,3
same,Goiter: number of subjects,through Week 56,0
same,Haemochromatosis: number of subjects,through Week 56,0
same,Hand dermatitis: number of subjects,through Week 56,0
same,Hematuria: % of subjects,through Week 56,(2.3%)
same,Hematuria: number of subjects,through Week 56,1
same,Hepatobiliary disorders: number of subjects,through Week 56,0
same,Hypercholesterolemia: number of subjects,through Week 56,0
same,Hyperglycemia: % of subjects,through Week 56,(2.3%)
same,Hyperglycemia: number of subjects,through Week 56,1
same,Hyperlipidemia: number of subjects,through Week 56,0
same,Hypertension: % of subjects,through Week 56,(2.3%)
same,Hypertension: number of subjects,through Week 56,1
same,Hypertransaminasemia: number of subjects,through Week 56,0
same,Hypertriglyceridemia: number of subjects,through Week 56,0
same,Hypoacusis: number of subjects,through Week 56,0
same,Immune system disorders: % of subjects,through Week 56,(2.3%)
same,Immune system disorders: number of subjects,through Week 56,1
same,Influenza like illness: number of subjects,through Week 56,0
same,Insomnia: number of subjects,through Week 56,0
same,Intertrigo: number of subjects,through Week 56,0
same,Ketonuria: number of subjects,through Week 56,0
same,Leukocyturia: number of subjects,through Week 56,0
same,Leukopenia: % of subjects,through Week 56,(2.3%)
same,Leukopenia: number of subjects,through Week 56,1
same,Libido decreased: number of subjects,through Week 56,0
same,Liver disorder: number of subjects,through Week 56,0
same,Lymphopenia: % of subjects,through Week 56,(4.7%)
same,Lymphopenia: number of subjects,through Week 56,2
same,Menopause: % of subjects,through Week 56,(2.3%)
same,Menopause: number of subjects,through Week 56,1
same,Metabolism and nutrition disorders: % of subjects,through Week 56,(2.3%)
same,Metabolism and nutrition disorders: number of subjects,through Week 56,1
same,"Neoplasms benign, malignant and unspecified (incl cysts and polyps): % of subjects",through Week 56,(4.7%)
same,"Neoplasms benign, malignant and unspecified (incl cysts and polyps): number of subjects",through Week 56,2
same,Nephrolithiasis: number of subjects,through Week 56,0
same,Neutropenia: % of subjects,through Week 56,(4.7%)
same,Neutropenia: number of subjects,through Week 56,2
same,Night sweats: % of subjects,through Week 56,(2.3%)
same,Night sweats: number of subjects,through Week 56,1
same,Non-cardiac chest pain: % of subjects,through Week 56,(2.3%)
same,Non-cardiac chest pain: number of subjects,through Week 56,1
same,Ocular cyst: number of subjects,through Week 56,0
same,Oedema peripheral: % of subjects,through Week 56,(2.3%)
same,Oedema peripheral: number of subjects,through Week 56,1
same,Oropharyngeal pain: number of subjects,through Week 56,0
same,Procedural pain: number of subjects,through Week 56,0
same,Productive cough: number of subjects,through Week 56,0
same,Proteinuria: number of subjects,through Week 56,0
same,Pruritus: % of subjects,through Week 56,(2.3%)
same,Pruritus: number of subjects,through Week 56,1
same,Psoriasis: number of subjects,through Week 56,0
same,Psychiatric disorders: number of subjects,through Week 56,0
same,Pyrexia: number of subjects,through Week 56,0
same,Rash pruritic: number of subjects,through Week 56,0
same,Renal and urinary disorders: % of subjects,through Week 56,(2.3%)
same,Renal and urinary disorders: number of subjects,through Week 56,1
